Laboratory results reported in the CheMixHub ionic liquid set.
Where “and” joins values, the source holds several entries; their conditions need not be identical. Equal values may be shown once.

Test: xn = mol fraction of the nth substance listed
Settings: for viscosity: 100 kPa; for electrical conductivity: 101.3 kPa

CCCCCCCCCCCCCCCC[N+](C)(C)C.[Br-] + OC[C@@H](O)[C@H](O)[C@@H](O)CO + O
viscosity [mPa·s]
Settings	298.15 K	308.15 K	318.15 K
x1 = 7.19e-06, x2 = 0.002032	0.942	0.778	0.646
x1 = 7.19e-06, x2 = 0.002472	0.952	0.785	0.652
x1 = 7.19e-06, x2 = 0.002816	0.96	0.791	0.657
x1 = 7.2e-06, x2 = 0.0009831	0.918	0.759	0.631
x1 = 7.2e-06, x2 = 0.001215	0.923	0.763	0.634
x1 = 7.2e-06, x2 = 0.00156	0.931	0.769	0.639
x1 = 7.21e-06, x2 = 0	0.896	0.742	0.617
x1 = 1.437e-05, x2 = 0.002971	0.97	0.801	0.664
x1 = 1.438e-05, x2 = 0.002331	0.955	0.789	0.654
x1 = 1.439e-05, x2 = 0.001497	0.935	0.772	0.641
x1 = 1.439e-05, x2 = 0.002025	0.947	0.783	0.649
x1 = 1.44e-05, x2 = 0.0008555	0.919	0.76	0.631
x1 = 1.44e-05, x2 = 0.001291	0.929	0.768	0.638
x1 = 1.442e-05, x2 = 0	0.898	0.744	0.617
x1 = 2.156e-05, x2 = 0.002894	0.973	0.804	0.666
x1 = 2.157e-05, x2 = 0.002365	0.96	0.793	0.657
x1 = 2.158e-05, x2 = 0.002035	0.951	0.786	0.651
x1 = 2.159e-05, x2 = 0.001618	0.941	0.778	0.644
x1 = 2.16e-05, x2 = 0.0009365	0.924	0.764	0.633
x1 = 2.16e-05, x2 = 0.001242	0.931	0.77	0.638
x1 = 2.162e-05, x2 = 0	0.9	0.745	0.617

CCCCCCCCn1cc[n+](C)c1.[Cl-] + OC[C@H]1O[C@@](CO)(O[C@H]2O[C@H](CO)[C@@H](O)[C@H](O)[C@H]2O)[C@@H](O)[C@@H]1O + O
298.15 K
Settings	electrical conductivity
x2 = 0, x1 = 4.96e-06	0.00314 S/m
x2 = 0, x1 = 7.53e-06	0.00467 S/m
x2 = 0, x1 = 1.002e-05	0.00613 S/m
x2 = 0, x1 = 1.247e-05	0.00756 S/m
x2 = 0, x1 = 1.481e-05	0.00893 S/m
x2 = 0, x1 = 1.716e-05	0.01029 S/m
x2 = 0, x1 = 1.95e-05	0.0116 S/m
x2 = 0, x1 = 2.177e-05	0.0129 S/m
x2 = 0, x1 = 2.424e-05	0.01436 S/m
x2 = 0, x1 = 2.667e-05	0.0158 S/m
x2 = 0, x1 = 2.939e-05	0.0173 S/m
x2 = 0.003591, x1 = 1.259e-05	0.00669 S/m
x2 = 0.003591, x1 = 1.587e-05	0.00832 S/m
x2 = 0.003591, x1 = 1.902e-05	0.00988 S/m
x2 = 0.003591, x1 = 2.222e-05	0.0114 S/m
x2 = 0.003591, x1 = 2.521e-05	0.0129 S/m
x2 = 0.003591, x1 = 2.835e-05	0.0144 S/m
x2 = 0.003591, x1 = 3.142e-05	0.0159 S/m
x2 = 0.003591, x1 = 3.424e-05	0.01727 S/m
x2 = 0.003591, x1 = 3.712e-05	0.0186 S/m
x2 = 0.007156, x1 = 1.254e-05	0.00531 S/m
x2 = 0.007156, x1 = 1.623e-05	0.00676 S/m
x2 = 0.007156, x1 = 1.993e-05	0.00821 S/m
x2 = 0.007156, x1 = 2.37e-05	0.00967 S/m
x2 = 0.007156, x1 = 2.738e-05	0.0111 S/m
x2 = 0.007156, x1 = 3.084e-05	0.01242 S/m
x2 = 0.007156, x1 = 3.403e-05	0.0137 S/m
x2 = 0.007156, x1 = 3.72e-05	0.0149 S/m
x2 = 0.007156, x1 = 4.042e-05	0.01608 S/m
x2 = 0.007156, x1 = 4.288e-05	0.01701 S/m
x2 = 0.0107, x1 = 8.12e-06	0.00311 S/m
x2 = 0.0107, x1 = 1.295e-05	0.00472 S/m
x2 = 0.0107, x1 = 1.756e-05	0.00623 S/m
x2 = 0.0107, x1 = 2.181e-05	0.00762 S/m
x2 = 0.0107, x1 = 2.602e-05	0.00898 S/m
x2 = 0.0107, x1 = 3.017e-05	0.0103 S/m
x2 = 0.0107, x1 = 3.408e-05	0.0115 S/m
x2 = 0.0107, x1 = 3.778e-05	0.0127 S/m
x2 = 0.0107, x1 = 4.136e-05	0.0138 S/m
x2 = 0.0107, x1 = 4.484e-05	0.0149 S/m
x2 = 0.0107, x1 = 4.818e-05	0.016 S/m
x2 = 0.01421, x1 = 9.43e-06	0.00302 S/m
x2 = 0.01421, x1 = 1.407e-05	0.00432 S/m
x2 = 0.01421, x1 = 1.861e-05	0.00559 S/m
x2 = 0.01421, x1 = 2.29e-05	0.00678 S/m
x2 = 0.01421, x1 = 2.718e-05	0.00795 S/m
x2 = 0.01421, x1 = 3.134e-05	0.00908 S/m
x2 = 0.01421, x1 = 3.512e-05	0.0101 S/m
x2 = 0.01421, x1 = 3.883e-05	0.0111 S/m
x2 = 0.01421, x1 = 4.258e-05	0.0121 S/m
x2 = 0.01421, x1 = 4.643e-05	0.01312 S/m
x2 = 0.0177, x1 = 7.66e-06	0.00219 S/m
x2 = 0.0177, x1 = 1.502e-05	0.00393 S/m
x2 = 0.0177, x1 = 2.194e-05	0.00554 S/m
x2 = 0.0177, x1 = 2.846e-05	0.00705 S/m
x2 = 0.0177, x1 = 3.471e-05	0.00848 S/m
x2 = 0.0177, x1 = 4.134e-05	0.00996 S/m
x2 = 0.0177, x1 = 4.728e-05	0.01128 S/m
x2 = 0.0177, x1 = 5.36e-05	0.0127 S/m
x2 = 0.0177, x1 = 5.928e-05	0.0139 S/m
x2 = 0.0177, x1 = 6.496e-05	0.01517 S/m
x2 = 0.02116, x3 = 0.9788	0.0133 S/m and 0.0143 S/m
